Reference: PMC8111447 (Frontiers in Pharmacology, 2021)
pIC50: −log10 of the molar value.

Assays:
TSSK1(h) = biological target: T1, TSSK1(h) (Homo sapiens, UniProt Q9BXA7); assay: Kinase panel (Eurofins); assay type: biochemical; conditions: n = 2; for inhibition at 1 µM: at 1 μmol/L; for pIC50: read-out: IC50 kinase inhibition
T1 construct: purchased Eurofins
T1 sequence (Q9BXA7 1-367): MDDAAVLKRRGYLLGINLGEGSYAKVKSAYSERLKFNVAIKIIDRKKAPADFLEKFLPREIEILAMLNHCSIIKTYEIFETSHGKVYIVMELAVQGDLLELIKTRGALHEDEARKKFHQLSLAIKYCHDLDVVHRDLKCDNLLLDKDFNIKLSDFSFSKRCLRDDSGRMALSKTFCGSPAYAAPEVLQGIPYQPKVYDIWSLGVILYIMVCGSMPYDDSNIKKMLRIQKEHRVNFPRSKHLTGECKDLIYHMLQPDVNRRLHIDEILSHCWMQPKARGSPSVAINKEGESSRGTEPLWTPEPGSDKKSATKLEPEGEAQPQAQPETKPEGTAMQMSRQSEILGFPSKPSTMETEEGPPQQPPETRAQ
Text: (§1) These receptors have a methionine gatekeeper in their kinase domains, and are related to hyperglycemia in other clinical trials of EGFR TKI, such as Co-1686.

JAK3(h) = biological target: T2, JAK3(h) (Homo sapiens, UniProt P52333); assay: Kinase panel (Eurofins); assay type: biochemical; conditions: n = 2; for inhibition at 1 µM: at 1 μmol/L; for pIC50: read-out: IC50 kinase inhibition
T2 construct: purchased Eurofins
T2 sequence (P52333 1-1124): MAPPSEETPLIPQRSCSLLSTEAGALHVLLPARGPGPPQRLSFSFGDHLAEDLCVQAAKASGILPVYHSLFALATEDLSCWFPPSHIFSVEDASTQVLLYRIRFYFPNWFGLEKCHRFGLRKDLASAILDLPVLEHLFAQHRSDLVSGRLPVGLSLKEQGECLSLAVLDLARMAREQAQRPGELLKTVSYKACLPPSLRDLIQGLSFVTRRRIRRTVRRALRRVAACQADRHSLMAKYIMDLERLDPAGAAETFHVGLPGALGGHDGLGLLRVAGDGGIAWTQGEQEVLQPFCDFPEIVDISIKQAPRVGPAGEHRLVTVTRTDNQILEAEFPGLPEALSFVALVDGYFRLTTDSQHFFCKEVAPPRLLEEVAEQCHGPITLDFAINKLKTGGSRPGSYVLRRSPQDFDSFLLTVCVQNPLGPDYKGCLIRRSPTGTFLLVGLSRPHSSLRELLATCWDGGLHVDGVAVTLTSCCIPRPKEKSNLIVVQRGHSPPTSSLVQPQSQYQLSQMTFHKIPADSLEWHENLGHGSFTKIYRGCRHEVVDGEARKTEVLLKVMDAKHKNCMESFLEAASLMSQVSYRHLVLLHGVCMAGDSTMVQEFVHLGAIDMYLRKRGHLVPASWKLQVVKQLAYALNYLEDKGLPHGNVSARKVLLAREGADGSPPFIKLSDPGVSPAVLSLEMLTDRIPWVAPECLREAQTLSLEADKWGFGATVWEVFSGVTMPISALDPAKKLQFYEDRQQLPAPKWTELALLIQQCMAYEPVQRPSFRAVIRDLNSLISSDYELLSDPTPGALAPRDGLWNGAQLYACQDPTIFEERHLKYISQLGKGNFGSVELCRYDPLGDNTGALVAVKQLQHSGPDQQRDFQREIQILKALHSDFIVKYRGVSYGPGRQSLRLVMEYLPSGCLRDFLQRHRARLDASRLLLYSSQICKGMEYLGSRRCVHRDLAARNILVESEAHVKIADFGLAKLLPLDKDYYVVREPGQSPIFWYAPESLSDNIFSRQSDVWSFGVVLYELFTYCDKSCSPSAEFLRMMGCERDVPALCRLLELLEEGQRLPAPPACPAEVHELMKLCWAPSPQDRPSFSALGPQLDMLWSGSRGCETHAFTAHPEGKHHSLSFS
Text: as §1

Flt4(h) = biological target: T3, Flt4(h) (Homo sapiens, UniProt P35916); assay: Kinase panel (Eurofins); assay type: biochemical; conditions: n = 2; for inhibition at 1 µM: at 1 μmol/L; for pIC50: read-out: IC50 kinase inhibition
T3 construct: purchased Eurofins
Text: as §1

ALK(h) = biological target: T4, ALK(h) (Homo sapiens, UniProt Q9UM73); assay: Kinase panel (Eurofins); assay type: biochemical; conditions: n = 2; for inhibition at 1 µM: at 1 μmol/L; for pIC50: read-out: IC50 kinase inhibition
T4 construct: purchased Eurofins
Text: as §1

ErbB2(h) = biological target: T5, ErbB2(h) (Homo sapiens, UniProt P04626); assay: Kinase panel (Eurofins); assay type: biochemical; conditions: n = 2; for inhibition at 1 µM: at 1 μmol/L; for pIC50: read-out: IC50 kinase inhibition
T5 construct: purchased Eurofins
Text: as §1

MLCK(h) = biological target: T6, MLCK(h) (Homo sapiens, UniProt Q9H1R3); assay: Kinase panel (Eurofins); assay type: biochemical; conditions: n = 2; for inhibition at 1 µM: at 1 μmol/L; for pIC50: read-out: IC50 kinase inhibition
T6 construct: purchased Eurofins
Text: as §1

[1] = tested on: EGFR phosphorylation in PC-9 cells; assay: Phosphorylation of EGFR assay after wash-out; assay type: cell-based, human; conditions: 0.1 μmol/L for 2 h, then washed out
Procedure: (§2) Cells (NCI-H1975/PC-9/[…]) were seeded into a 384-well plate (10,000 cells/well), grown for 24 h, and then treated with 0.1 μmol/L of test compounds for 2 h. Cells were washed with fresh medium once. Then, 50 μl of medium was added in each well and the plate was cultured in an incubator for 0, 1, 2, 6 and 24 h. Cells were washed with ice-cold Hanks Balanced Salt Solution (HBSS) before extraction with 25 μl cell lysis buffer. The phosphorylation levels of EGFR were measured as described above.

[2] = tested on: EGFR phosphorylation in NCI-H1975 cells; assay: Phosphorylation of EGFR assay after wash-out; assay type: cell-based, human; conditions: 0.1 μmol/L for 2 h, then washed out
Procedure: as §2

T3 sequence (P35916 25-1363): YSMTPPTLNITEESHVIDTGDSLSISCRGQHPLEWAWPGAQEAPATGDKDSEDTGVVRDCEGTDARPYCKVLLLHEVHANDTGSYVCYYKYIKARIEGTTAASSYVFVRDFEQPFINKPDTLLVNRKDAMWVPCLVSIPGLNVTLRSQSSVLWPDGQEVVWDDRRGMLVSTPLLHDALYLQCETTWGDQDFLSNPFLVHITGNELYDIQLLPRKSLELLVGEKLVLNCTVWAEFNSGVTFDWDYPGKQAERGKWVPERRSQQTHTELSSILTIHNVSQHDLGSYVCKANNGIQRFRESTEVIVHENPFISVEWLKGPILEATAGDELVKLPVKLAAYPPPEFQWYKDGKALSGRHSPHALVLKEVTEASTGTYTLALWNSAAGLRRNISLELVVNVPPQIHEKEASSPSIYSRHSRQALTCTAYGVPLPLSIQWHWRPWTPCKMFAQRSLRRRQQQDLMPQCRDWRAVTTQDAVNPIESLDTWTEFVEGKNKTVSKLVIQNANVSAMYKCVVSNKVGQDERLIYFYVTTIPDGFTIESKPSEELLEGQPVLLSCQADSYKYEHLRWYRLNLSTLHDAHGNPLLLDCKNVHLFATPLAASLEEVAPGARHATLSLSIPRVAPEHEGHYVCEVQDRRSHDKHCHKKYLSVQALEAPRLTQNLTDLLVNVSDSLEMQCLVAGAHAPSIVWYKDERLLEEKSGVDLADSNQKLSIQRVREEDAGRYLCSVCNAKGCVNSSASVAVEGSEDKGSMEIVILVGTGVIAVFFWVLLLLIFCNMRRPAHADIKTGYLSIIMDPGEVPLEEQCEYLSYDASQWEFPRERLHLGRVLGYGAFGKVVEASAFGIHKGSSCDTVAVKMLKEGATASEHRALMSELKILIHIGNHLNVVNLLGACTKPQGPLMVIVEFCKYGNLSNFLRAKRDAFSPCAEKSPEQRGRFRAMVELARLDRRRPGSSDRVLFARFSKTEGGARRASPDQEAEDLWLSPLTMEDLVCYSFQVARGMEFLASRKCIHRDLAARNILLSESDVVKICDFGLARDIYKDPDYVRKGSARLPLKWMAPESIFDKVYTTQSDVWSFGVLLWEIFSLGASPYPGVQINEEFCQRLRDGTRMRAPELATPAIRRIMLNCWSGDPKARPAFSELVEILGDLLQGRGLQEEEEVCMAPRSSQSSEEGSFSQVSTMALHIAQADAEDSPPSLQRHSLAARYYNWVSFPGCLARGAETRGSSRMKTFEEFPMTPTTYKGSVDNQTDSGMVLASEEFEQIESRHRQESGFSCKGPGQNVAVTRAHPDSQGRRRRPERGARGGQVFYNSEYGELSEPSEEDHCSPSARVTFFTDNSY
T5 sequence (P04626 23-1255): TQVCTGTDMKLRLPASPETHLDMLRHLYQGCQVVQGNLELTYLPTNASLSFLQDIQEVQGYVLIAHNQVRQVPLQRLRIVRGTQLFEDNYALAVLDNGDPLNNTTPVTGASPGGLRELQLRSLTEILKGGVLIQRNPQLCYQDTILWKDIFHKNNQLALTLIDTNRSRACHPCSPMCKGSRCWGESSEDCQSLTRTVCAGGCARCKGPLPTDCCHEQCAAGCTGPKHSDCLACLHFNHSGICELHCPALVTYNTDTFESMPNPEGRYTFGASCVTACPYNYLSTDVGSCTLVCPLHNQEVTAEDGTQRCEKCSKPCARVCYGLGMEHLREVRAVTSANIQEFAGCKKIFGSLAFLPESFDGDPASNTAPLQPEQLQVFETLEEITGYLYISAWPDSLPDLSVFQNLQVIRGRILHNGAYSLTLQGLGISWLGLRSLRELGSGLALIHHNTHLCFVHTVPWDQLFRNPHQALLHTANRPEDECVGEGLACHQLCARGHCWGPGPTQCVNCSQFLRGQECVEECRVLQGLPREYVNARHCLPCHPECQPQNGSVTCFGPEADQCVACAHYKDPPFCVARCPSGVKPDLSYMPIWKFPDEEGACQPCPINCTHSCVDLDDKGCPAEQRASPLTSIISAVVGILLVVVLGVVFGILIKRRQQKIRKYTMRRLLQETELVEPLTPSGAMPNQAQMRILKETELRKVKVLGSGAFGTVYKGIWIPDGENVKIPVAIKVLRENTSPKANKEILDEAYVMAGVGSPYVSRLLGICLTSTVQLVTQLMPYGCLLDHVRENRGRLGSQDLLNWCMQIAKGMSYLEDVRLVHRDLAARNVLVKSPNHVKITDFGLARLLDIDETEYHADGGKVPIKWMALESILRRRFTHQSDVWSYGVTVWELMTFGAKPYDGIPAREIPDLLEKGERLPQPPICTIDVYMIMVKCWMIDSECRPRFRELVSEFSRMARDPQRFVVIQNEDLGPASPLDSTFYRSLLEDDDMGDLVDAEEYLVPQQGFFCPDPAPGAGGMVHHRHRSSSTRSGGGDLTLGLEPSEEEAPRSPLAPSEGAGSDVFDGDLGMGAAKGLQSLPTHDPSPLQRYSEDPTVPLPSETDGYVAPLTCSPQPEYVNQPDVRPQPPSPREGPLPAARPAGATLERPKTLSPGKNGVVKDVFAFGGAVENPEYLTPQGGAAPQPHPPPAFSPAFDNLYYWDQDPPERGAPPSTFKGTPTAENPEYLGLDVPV
T4 sequence (Q9UM73 19-1620): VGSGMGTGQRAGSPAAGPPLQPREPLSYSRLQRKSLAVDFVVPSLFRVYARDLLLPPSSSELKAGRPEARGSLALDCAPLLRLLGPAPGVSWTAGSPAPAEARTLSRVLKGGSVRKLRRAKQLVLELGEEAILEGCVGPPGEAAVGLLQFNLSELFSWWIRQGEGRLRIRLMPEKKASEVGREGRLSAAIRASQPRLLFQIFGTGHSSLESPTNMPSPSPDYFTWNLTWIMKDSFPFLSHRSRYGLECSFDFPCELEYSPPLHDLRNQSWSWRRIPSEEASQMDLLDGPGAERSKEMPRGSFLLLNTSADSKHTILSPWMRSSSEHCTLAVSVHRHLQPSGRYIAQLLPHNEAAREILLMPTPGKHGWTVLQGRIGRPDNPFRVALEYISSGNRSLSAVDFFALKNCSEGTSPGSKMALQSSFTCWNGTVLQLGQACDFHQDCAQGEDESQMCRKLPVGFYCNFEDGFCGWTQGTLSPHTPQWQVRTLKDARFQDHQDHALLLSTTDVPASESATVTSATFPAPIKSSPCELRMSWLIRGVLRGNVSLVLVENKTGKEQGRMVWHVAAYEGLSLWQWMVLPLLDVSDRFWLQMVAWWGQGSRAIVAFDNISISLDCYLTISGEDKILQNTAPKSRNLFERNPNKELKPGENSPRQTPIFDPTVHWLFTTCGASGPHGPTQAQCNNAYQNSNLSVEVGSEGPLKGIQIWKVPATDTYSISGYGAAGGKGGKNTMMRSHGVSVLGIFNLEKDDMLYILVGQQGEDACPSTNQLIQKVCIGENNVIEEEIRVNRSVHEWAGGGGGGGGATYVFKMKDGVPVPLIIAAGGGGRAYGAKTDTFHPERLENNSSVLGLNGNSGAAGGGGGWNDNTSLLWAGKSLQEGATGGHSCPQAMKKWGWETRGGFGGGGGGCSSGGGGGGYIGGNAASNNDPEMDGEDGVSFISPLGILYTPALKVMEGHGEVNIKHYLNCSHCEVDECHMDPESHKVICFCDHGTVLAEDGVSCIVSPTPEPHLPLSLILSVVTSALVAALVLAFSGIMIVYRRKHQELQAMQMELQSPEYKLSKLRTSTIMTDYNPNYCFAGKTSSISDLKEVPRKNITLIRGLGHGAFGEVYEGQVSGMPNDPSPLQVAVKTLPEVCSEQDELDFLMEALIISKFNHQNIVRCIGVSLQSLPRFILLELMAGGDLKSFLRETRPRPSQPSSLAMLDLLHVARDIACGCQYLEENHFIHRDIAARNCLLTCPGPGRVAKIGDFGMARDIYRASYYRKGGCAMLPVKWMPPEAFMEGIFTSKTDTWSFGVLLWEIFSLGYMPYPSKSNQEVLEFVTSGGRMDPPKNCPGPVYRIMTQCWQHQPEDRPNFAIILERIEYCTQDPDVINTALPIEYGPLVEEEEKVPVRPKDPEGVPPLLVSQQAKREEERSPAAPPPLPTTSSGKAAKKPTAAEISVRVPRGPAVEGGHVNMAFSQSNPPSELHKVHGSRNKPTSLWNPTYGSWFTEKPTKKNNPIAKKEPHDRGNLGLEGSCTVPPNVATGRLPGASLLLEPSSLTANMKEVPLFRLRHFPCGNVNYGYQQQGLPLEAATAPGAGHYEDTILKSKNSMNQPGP

inhibition at 1 µM (TSSK1(h)) [%] | pIC50 (TSSK1(h)) | inhibition at 1 µM (JAK3(h)) [%] | pIC50 (JAK3(h)) | inhibition at 1 µM (Flt4(h)) [%] | pIC50 (Flt4(h)) | inhibition at 1 µM (ALK(h)) [%] | pIC50 (ALK(h)) | inhibition at 1 µM (ErbB2(h)) [%] | pIC50 (ErbB2(h)) | inhibition at 1 µM (MLCK(h)) [%] | pIC50 (MLCK(h)) | Compound | duration of continued inhibition of EGFR phosphorylation after wash-out [1] | duration of continued inhibition of EGFR phosphorylation after wash-out [2]
98 | 7.14 | 55 | 5.86 | 96 | 6.98 | 92 | 7.28 | 83 | 6.71 | 68 | 6.22 | C=CC(=O)Nc1cc(Nc2nccc(-c3c4n(c5ccccc35)CCCC4)n2)c(OC)cc1N(C)CCNC [Imp3] | at least 6 h | at least 6 h
84 | 6.98 | 61 | 5.76 | 92 | 7.21 | 85 | 7.10 | 72 | 7.26 | 55 | 6.40 | C=CC(=O)Nc1cc(Nc2nccc(-c3c4n(c5ccccc35)CCCC4)n2)c(OC)cc1N(C)CCN(C)C [SH-1028] | at least 6 h | at least 6 h
